According to US12479847B2 (DANA-FARBER CANCER INSTITUTE, INC., priority 2019, dated 2025):

What was measured:
Assay in all cases: KINOMEscan (ScanMAX) kinase profiling
Type in all cases: binding
[1] = target: T1, panel of 468 kinases (Homo sapiens, UniProt Q09013); conditions: DMPK; 1 μM; read-out: % control
T1 construct: purchased KINOMEscan (ScanMAX) service
T1 sequence (Q09013 1-629): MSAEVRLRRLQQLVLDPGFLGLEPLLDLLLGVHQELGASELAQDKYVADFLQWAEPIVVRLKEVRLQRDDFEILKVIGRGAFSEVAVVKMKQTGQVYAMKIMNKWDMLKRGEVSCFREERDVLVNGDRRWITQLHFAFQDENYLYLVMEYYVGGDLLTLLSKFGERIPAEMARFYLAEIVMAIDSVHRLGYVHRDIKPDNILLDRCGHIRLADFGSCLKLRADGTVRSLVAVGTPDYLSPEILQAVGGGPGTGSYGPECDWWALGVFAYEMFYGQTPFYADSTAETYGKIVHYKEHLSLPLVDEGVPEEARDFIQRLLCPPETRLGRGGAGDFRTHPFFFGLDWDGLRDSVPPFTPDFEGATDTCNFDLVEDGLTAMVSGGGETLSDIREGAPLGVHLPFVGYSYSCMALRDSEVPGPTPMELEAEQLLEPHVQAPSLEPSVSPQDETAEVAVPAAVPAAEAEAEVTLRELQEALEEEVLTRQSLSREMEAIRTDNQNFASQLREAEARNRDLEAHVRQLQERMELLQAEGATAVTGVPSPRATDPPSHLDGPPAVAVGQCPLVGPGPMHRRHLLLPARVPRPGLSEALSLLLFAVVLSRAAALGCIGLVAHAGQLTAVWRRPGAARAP

[2] = target: T2, panel of 468 kinases (Homo sapiens, UniProt P78356); conditions: PIP5K2B; 1 μM; read-out: % control
T2 construct: purchased KINOMEscan (ScanMAX) service
T2 sequence (P78356 1-416): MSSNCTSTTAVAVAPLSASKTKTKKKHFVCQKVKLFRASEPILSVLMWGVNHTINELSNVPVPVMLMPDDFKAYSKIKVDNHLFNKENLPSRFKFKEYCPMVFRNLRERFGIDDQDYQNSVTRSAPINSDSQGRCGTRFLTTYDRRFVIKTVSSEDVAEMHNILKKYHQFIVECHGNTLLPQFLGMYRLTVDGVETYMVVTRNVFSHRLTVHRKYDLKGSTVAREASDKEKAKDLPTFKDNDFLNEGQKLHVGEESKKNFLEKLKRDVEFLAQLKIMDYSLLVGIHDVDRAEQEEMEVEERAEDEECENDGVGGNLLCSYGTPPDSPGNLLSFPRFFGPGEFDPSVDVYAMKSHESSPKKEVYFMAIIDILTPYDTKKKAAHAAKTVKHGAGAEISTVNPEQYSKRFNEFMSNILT

[3] = target: T3, panel of 468 kinases (Homo sapiens, UniProt Q8NEB9); conditions: VPS34; 1 μM; read-out: % control
T3 construct: purchased KINOMEscan (ScanMAX) service

[4] = target: T4, panel of 468 kinases (Homo sapiens, UniProt P51956); conditions: NEK3; 1 μM; read-out: % control
T4 construct: purchased KINOMEscan (ScanMAX) service
T4 sequence (P51956 1-506): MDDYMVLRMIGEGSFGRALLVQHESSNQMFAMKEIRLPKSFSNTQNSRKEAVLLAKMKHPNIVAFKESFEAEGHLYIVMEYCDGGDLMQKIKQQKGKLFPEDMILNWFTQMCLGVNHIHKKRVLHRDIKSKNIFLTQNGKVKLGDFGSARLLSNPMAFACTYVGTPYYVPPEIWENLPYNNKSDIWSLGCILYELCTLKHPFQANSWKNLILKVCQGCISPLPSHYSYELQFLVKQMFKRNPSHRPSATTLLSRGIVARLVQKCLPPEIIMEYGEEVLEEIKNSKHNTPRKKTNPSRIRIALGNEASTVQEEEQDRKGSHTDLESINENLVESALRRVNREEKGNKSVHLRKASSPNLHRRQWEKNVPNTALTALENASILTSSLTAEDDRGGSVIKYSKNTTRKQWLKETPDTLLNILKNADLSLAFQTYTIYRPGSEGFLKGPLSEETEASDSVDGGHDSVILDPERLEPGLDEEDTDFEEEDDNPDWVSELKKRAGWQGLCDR

[5] = target: T5, panel of 468 kinases (Homo sapiens, UniProt Q96BR1); conditions: SGK3; 1 μM; read-out: % control
T5 construct: purchased KINOMEscan (ScanMAX) service
T5 sequence (Q96BR1 1-496): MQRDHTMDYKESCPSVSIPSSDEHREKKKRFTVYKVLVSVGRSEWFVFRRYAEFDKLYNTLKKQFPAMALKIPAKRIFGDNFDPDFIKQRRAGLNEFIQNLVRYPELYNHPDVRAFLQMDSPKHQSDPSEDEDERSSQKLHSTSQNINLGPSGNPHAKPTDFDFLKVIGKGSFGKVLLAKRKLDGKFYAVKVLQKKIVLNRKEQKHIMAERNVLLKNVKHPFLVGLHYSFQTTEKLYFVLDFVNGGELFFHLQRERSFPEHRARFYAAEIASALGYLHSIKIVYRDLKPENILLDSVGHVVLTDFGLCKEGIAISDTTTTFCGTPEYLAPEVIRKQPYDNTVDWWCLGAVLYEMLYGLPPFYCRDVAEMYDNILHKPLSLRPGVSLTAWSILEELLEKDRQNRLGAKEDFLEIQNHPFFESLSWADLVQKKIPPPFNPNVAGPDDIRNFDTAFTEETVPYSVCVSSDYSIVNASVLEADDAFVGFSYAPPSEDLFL

[6] = target: T6, panel of 468 kinases (Homo sapiens, UniProt Q9Y6R4); conditions: MAP3K4; 1 μM; read-out: % control
T6 construct: purchased KINOMEscan (ScanMAX) service

[7] = target: T7, panel of 468 kinases (Homo sapiens, UniProt Q16513); conditions: PKN2; 1 μM; read-out: % control
T7 construct: purchased KINOMEscan (ScanMAX) service

[8] = target: T8, panel of 468 kinases (Homo sapiens, UniProt Q9UPE1); conditions: SRPK3; 1 μM; read-out: % control
T8 construct: purchased KINOMEscan (ScanMAX) service

[9] = target: T9, panel of 468 kinases (Homo sapiens, UniProt Q9C098); conditions: DCAMKL3; 1 μM; read-out: % control
T9 construct: purchased KINOMEscan (ScanMAX) service

[10] = target: T10, panel of 468 kinases (Mycobacterium tuberculosis, UniProt P9WI81); conditions: read-out: % control
T10 construct: purchased KINOMEscan (ScanMAX) service
T10 sequence (P9WI81 whole entry): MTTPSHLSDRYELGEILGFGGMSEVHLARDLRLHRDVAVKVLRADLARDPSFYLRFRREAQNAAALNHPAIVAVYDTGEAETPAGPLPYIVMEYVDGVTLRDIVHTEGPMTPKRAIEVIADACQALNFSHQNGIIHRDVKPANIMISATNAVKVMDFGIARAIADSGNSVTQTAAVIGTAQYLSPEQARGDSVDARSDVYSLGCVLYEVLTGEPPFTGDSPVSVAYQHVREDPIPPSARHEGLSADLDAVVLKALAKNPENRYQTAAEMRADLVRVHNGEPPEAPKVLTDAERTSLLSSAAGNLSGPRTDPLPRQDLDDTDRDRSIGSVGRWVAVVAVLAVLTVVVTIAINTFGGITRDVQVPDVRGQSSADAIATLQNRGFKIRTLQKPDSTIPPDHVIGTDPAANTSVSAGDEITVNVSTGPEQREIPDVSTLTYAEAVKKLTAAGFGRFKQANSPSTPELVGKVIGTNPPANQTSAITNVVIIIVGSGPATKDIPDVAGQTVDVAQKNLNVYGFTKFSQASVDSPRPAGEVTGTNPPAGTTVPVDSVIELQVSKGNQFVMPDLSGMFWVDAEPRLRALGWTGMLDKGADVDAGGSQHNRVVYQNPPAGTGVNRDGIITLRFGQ

T6 sequence (Q9Y6R4 whole entry): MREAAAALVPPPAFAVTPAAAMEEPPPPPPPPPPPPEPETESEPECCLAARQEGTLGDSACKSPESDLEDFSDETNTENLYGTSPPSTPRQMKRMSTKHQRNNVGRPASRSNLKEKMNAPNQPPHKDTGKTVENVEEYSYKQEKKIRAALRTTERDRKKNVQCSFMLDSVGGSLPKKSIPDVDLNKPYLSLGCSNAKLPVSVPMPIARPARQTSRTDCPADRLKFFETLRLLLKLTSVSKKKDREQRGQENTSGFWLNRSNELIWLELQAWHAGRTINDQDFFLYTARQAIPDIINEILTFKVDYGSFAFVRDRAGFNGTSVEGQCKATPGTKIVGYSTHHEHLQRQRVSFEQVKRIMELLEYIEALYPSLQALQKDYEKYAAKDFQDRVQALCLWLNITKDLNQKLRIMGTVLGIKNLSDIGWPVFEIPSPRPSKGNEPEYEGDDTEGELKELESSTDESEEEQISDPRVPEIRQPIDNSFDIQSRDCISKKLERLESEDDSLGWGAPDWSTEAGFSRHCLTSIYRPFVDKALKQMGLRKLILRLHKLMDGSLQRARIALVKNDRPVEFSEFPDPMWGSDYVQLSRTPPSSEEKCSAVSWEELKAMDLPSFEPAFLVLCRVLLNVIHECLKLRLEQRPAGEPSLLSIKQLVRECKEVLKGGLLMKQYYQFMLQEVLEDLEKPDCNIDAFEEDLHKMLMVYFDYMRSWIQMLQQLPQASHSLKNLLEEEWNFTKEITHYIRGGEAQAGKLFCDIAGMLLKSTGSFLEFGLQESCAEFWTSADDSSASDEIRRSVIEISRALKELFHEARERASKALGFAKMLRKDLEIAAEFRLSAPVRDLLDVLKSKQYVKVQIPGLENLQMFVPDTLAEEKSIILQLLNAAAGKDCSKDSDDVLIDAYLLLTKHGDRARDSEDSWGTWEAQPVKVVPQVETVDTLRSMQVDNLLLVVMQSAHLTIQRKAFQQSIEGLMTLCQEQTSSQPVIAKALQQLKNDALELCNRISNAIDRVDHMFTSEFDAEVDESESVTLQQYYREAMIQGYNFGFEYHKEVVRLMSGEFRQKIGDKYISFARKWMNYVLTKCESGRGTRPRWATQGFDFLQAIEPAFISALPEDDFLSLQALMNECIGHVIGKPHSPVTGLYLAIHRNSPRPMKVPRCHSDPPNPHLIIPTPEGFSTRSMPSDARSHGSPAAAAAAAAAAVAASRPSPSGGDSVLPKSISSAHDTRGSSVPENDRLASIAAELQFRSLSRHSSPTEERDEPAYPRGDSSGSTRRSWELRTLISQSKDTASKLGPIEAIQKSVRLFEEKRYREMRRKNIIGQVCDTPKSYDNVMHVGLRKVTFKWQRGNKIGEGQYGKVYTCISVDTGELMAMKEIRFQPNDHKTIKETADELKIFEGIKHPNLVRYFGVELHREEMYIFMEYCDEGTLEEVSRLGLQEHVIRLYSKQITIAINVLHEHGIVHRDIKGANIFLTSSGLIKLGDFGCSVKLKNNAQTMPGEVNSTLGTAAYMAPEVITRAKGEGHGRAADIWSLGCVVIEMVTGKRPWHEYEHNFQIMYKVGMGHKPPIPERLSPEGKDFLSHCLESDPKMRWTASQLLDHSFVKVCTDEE
T7 sequence (Q16513 whole entry): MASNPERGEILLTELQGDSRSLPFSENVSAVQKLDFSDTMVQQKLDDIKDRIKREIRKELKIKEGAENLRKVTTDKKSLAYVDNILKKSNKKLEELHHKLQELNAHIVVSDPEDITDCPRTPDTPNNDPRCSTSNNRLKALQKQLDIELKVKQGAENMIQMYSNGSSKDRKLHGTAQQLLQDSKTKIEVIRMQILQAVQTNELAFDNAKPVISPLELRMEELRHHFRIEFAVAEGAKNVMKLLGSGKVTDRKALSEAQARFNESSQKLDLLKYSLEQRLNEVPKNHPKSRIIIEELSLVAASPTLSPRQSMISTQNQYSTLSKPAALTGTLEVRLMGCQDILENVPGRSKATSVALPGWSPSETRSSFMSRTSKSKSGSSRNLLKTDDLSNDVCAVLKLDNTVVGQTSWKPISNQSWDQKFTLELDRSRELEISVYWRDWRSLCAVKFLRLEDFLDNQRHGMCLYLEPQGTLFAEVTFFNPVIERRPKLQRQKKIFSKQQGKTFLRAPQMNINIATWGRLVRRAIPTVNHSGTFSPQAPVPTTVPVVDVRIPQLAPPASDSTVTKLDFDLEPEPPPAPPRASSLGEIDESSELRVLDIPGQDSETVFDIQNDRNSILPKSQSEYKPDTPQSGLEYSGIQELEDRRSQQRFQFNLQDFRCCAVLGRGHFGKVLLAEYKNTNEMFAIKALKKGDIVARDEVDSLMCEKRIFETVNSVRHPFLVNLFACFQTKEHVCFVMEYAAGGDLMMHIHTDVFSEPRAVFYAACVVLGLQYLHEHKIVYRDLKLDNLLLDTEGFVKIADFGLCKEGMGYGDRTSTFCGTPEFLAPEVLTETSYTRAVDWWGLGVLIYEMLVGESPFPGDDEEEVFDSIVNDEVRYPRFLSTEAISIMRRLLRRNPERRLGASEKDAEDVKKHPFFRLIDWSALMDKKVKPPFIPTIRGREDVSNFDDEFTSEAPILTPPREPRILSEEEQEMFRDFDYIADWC
T9 sequence (Q9C098 whole entry): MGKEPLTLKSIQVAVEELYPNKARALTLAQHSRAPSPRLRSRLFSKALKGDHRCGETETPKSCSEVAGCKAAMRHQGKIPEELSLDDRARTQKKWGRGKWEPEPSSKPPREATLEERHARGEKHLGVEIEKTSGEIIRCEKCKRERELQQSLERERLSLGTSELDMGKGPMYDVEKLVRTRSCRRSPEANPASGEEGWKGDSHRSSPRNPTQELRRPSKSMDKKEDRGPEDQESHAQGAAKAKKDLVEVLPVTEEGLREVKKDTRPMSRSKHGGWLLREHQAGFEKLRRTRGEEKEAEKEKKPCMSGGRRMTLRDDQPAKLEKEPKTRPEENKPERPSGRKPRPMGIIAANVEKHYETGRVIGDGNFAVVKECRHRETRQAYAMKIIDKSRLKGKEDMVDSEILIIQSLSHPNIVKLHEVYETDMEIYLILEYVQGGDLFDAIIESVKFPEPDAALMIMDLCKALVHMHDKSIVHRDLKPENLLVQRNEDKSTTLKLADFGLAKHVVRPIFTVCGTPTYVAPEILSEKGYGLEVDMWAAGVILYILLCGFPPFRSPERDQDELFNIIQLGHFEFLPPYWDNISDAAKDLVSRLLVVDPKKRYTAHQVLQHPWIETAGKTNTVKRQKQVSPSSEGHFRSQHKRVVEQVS
T3 sequence (Q8NEB9 whole entry): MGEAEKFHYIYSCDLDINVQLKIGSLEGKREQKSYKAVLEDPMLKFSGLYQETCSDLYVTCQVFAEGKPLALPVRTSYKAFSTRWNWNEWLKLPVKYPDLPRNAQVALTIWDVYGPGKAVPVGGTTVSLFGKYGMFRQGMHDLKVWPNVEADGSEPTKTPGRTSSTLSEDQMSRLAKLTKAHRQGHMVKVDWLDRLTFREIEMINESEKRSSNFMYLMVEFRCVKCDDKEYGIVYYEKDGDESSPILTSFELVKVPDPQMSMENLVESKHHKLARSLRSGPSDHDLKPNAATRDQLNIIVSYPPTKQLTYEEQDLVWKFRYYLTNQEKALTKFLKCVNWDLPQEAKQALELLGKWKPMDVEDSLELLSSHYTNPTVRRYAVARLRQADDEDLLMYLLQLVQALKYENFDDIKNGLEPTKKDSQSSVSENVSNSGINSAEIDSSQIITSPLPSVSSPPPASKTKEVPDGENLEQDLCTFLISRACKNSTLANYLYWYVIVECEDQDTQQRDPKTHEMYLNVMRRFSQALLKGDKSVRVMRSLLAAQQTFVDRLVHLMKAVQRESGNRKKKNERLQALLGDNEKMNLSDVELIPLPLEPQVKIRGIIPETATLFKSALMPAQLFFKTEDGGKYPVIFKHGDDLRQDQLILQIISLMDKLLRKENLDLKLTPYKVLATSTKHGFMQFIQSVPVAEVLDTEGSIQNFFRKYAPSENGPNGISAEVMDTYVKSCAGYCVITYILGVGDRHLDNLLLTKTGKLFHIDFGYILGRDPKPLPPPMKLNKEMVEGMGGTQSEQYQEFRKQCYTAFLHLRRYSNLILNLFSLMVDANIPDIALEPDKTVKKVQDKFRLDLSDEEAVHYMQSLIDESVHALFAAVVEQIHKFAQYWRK

`CNc1nc(Nc2ccc(C(=O)N3CCC(N4CCOCC4)CC3)c3c2OCO3)nc2[nH]cc(Cl)c12` [Compound 75, (7-((5-chloro-4-(methylamino)-7H-pyrrolo[2,3-d]pyrimidin-2-yl)amino)benzo[d][1,3]dioxol-4-yl)(4-morpholinopiperidin-1-yl)methanone] was tested, and the remaining binding at 1 µM [1] was 100%, the remaining binding at 1 µM [2] was 97% and the remaining binding at 1 µM [3] was 69%. The remaining binding at 1 µM [4] was 54%, the remaining binding at 1 µM [5] was 32% and the remaining binding at 1 µM [6] was 100%. It also gave a remaining binding at 1 µM [7] of 91%, a remaining binding at 1 µM [8] of 40% and a remaining binding at 1 µM [9] of 100%. For the same compound, the remaining binding at 1 µM [10] was 68%.

Work on `CNc1nc(Nc2ccc(S(=O)(=O)N3CCC(N4CCOCC4)CC3)cc2OC)nc2[nH]cc(Cl)c12` [Compound 12, 5-chloro-N2-(2-methoxy-4-((4-morpholinopiperidin-1-yl)sulfonyl)phenyl)-N4-methyl-7H-pyrrolo[2,3-d]pyrimidine-2,4-diamine] yielded a remaining binding at 1 µM [1] of 97%, a remaining binding at 1 µM [2] of 100% and a remaining binding at 1 µM [3] of 62%. It also gave a remaining binding at 1 µM [4] of 51%, a remaining binding at 1 µM [5] of 76% and a remaining binding at 1 µM [6] of 100%. It also gave a remaining binding at 1 µM [7] of 99%, a remaining binding at 1 µM [8] of 99% and a remaining binding at 1 µM [9] of 100%. The remaining binding at 1 µM [10] was 93%.

`CNc1nc(Nc2ccc(P3(=O)CCN(C4CCOCC4)CC3)cc2OC)nc2[nH]cc(Cl)c12` [Compound 77, 4-(4-((5-chloro-4-(methylamino)-7H-pyrrolo[2,3-d]pyrimidin-2-yl)amino)-3-methoxyphenyl)-1-(tetrahydro-2H-pyran-4-yl)-1,4-azaphosphinane 4-oxide] gave a remaining binding at 1 µM [1] of 100%, a remaining binding at 1 µM [2] of 100% and a remaining binding at 1 µM [3] of 71%. It also gave a remaining binding at 1 µM [4] of 52%, a remaining binding at 1 µM [5] of 78% and a remaining binding at 1 µM [6] of 100%. For the same compound, the remaining binding at 1 µM [7] was 100%, the remaining binding at 1 µM [8] was 88% and the remaining binding at 1 µM [9] was 100%. It also gave a remaining binding at 1 µM [10] of 100%.
